SMILES strings stand for the structures.

Data set [1] has as its target T1, Cytochrome P450 2C8 (Homo sapiens, UniProt P10632).
T1 sequence (P10632 whole entry): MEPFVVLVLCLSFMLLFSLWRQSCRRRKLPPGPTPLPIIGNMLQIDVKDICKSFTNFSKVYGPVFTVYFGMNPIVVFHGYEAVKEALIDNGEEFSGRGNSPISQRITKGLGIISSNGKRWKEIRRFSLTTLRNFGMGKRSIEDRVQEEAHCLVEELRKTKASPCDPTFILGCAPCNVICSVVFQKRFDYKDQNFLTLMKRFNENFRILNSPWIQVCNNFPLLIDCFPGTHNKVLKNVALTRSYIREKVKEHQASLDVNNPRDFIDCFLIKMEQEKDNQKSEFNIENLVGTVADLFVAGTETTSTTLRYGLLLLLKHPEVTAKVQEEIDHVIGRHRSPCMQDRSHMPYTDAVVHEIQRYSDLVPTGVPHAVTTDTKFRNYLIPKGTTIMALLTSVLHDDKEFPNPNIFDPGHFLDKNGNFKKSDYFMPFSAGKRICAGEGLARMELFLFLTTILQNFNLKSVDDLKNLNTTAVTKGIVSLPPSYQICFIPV
In words: Inhibition of CYP2C8 in human pooled liver microsomes using amodiaquine as substrate preincubated with NADPH for 30 mins followed by substrate addition and measured after 10 mins by UPLC-MS/MS analysis. Type of data set: ADME.

The target of data set [2] is T2, Cytochrome P450 2C9 (Homo sapiens, UniProt P11712). Kind of data set: Inhibition of CYP2C9 in human pooled liver microsomes using tolbutamide as substrate preincubated with NADPH for 30 mins followed by substrate addition and measured after 10 mins by UPLC-MS/MS analysis. Type of data set: ADME.
T2 sequence (P11712 whole entry): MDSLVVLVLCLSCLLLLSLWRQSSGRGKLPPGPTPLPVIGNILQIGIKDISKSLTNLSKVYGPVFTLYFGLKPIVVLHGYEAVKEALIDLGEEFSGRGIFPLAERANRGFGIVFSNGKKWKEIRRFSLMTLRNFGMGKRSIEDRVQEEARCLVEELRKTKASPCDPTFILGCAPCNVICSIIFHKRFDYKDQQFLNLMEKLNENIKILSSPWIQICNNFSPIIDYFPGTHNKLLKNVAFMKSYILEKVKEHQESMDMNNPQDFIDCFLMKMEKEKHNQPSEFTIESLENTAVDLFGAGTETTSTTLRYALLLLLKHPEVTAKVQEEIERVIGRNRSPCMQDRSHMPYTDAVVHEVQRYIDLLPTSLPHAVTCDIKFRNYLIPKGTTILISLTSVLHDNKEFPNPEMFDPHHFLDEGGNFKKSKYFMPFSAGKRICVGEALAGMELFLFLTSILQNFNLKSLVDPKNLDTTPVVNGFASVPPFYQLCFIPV
Data set [3] addresses T3, CYP3A4/5 (Homo sapiens, UniProt P08684+P20815). Kind of data set: Inhibition of CYP3A4/5 in human pooled liver microsomes using midazolam as substrate preincubated with NADPH for 30 mins followed by substrate addition and measured after 10 mins by UPLC-MS/MS analysis. Type of data set: ADME. Conditions: probe midazolam.
The target of data set [4] is T2, Cytochrome P450 2C9. Kind of data set: Inhibition of CYP2C9 in human pooled liver microsomes using tolbutamide as substrate after 10 mins by UPLC-MS/MS analysis. Type of data set: ADME.
In data set [5] the target is T4, Cytochrome P450 2D6 (Homo sapiens, UniProt P10635). In words: Inhibition of CYP2D6 in human pooled liver microsomes using dextromethorphan as substrate preincubated with NADPH for 30 mins followed by substrate addition and measured after 10 mins by UPLC-MS/MS analysis. Type of data set: ADME.
T4 sequence (P10635 whole entry): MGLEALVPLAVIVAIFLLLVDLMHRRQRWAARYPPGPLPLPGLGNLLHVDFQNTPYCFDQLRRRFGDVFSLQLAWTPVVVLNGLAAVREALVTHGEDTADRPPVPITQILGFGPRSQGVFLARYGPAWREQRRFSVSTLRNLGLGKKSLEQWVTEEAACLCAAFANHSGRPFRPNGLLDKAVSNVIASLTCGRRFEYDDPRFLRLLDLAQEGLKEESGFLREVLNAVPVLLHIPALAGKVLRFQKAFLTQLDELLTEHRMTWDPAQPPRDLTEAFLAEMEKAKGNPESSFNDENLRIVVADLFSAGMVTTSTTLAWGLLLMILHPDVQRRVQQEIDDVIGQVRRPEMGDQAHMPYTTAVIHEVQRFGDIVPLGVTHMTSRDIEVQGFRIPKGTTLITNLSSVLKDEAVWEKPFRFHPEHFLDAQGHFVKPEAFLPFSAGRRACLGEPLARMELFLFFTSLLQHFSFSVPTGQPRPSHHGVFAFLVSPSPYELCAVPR
The target of data set [6] is T4, Cytochrome P450 2D6. In words: Inhibition of CYP2D6 in human pooled liver microsomes using dextromethorphan as substrate after 10 mins by UPLC-MS/MS analysis. Type of data set: ADME.
Data set [7] deals with T5, Cytochrome P450 1A2 (Homo sapiens, UniProt P05177).
T5 sequence (P05177 whole entry): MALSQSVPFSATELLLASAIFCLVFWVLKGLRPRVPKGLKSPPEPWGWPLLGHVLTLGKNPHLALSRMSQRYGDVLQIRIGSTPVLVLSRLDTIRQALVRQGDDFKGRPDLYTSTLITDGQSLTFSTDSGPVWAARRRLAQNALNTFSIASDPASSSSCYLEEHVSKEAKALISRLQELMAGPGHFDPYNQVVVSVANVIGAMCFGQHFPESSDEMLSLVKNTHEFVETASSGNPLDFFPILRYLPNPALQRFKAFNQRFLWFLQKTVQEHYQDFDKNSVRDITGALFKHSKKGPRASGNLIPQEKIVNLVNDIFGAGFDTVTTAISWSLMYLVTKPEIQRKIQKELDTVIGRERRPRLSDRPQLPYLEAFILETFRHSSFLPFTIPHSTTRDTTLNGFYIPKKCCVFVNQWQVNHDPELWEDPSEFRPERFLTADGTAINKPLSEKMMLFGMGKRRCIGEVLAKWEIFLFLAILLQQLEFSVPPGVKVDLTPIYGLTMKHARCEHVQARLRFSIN
In words: Inhibition of CYP1A2 in human pooled liver microsomes using phenacetin as substrate preincubated with NADPH for 30 mins followed by substrate addition and measured after 10 mins by UPLC-MS/MS analysis. Type of data set: ADME.

The target of data set [8] is T6, Cytochrome P450 2C19 (Homo sapiens, UniProt P33261). Kind of data set: Inhibition of CYP2C19 in human pooled liver microsomes using (S)-mephenytoin as substrate after 10 mins by UPLC-MS/MS analysis. Type of data set: ADME.
T6 sequence (P33261 whole entry): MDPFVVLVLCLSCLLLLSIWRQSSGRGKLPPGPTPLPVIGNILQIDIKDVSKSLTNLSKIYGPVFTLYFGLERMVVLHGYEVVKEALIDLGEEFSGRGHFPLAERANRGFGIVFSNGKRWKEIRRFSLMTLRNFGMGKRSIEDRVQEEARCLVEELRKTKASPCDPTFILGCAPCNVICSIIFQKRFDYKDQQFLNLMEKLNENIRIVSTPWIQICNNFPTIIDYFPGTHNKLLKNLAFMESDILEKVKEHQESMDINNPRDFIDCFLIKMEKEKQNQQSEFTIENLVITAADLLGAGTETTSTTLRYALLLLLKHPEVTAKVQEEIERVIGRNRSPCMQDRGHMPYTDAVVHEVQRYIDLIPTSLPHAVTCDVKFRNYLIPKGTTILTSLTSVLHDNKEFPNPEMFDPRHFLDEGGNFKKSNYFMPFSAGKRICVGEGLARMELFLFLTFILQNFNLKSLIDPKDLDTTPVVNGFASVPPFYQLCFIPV
Data set [9] has as its target T3, CYP3A4/5. In words: Inhibition of CYP3A4/5 in human pooled liver microsomes using midazolam as substrate after 10 mins by UPLC-MS/MS analysis. Type of data set: ADME. Conditions: probe midazolam.
Data set [10] has as its target T5, Cytochrome P450 1A2. Kind of data set: Inhibition of CYP1A2 in human pooled liver microsomes using phenacetin as substrate after 10 mins by UPLC-MS/MS analysis. Type of data set: ADME.
Data set [11] addresses T6, Cytochrome P450 2C19. In words: Inhibition of CYP2C19 in human pooled liver microsomes using (S)-mephenytoin as substrate preincubated with NADPH for 30 mins followed by substrate addition and measured after 10 mins by UPLC-MS/MS analysis. Type of data set: ADME.
Data set [12] concerns the target T1, Cytochrome P450 2C8. Kind of data set: Inhibition of CYP2C8 in human pooled liver microsomes using amodiaquine as substrate after 10 mins by UPLC-MS/MS analysis. Type of data set: ADME.
Data set [13] concerns the target T7, Cytochrome P450 4Z1 (Homo sapiens, UniProt Q86W10).
T7 sequence (Q86W10 whole entry): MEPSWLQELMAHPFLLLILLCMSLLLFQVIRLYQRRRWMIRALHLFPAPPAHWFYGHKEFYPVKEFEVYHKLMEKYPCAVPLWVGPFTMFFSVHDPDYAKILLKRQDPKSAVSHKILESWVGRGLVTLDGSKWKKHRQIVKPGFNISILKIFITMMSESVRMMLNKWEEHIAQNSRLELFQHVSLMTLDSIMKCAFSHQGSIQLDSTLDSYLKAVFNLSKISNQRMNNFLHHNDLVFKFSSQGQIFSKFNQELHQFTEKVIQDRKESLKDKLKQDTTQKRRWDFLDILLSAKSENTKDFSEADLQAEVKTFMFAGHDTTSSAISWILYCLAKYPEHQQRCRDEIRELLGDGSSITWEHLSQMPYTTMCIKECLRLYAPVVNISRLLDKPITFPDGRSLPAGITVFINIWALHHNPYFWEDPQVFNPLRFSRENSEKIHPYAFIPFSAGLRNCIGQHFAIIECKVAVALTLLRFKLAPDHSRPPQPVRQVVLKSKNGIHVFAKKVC
Kind of data set: Inhibition of CYP4Z1 (unknown origin) in human HepG2 cell membranes transduced with lentiviral vector using luciferin-benzyl ether as substrate incubated for 5 mins followed by NADPH addition and measured after 20 mins by P450-glo luciferase based luminescence assay.

In data set [14] the target is T7, Cytochrome P450 4Z1. In words: Inhibition of CYP4Z1 (unknown origin) in human HepG2 cell membranes transduced with lentiviral vector using luciferin-benzyl ether as substrate preincubated with NADPH for 30 mins followed by substrate addition and measured after 10 mins by P450-glo luciferase based luminescence assay.
The subject of the next data set is HepG2. In words: Cytotoxicity against human HepG2 cells at 3 uM after 24 hrs by CellTiter-Glo luminescent cell viability assay. Type of data set: cell-based. The settings on record: hepg2, 24 h.
In a further data set the test system is T47D. Kind of data set: Cytotoxicity against human T47D cells at 3 uM after 24 hrs by CellTiter-Glo luminescent cell viability assay. Type of data set: cell-based.

With `O=C(O)CCCCCNn1nnc2ccccc21`, the 50% inhibitory concentration (IC50) on Cytochrome P450 2C8 [1] is 954 µM; against Cytochrome P450 2C9 [2] it was 1940 µM; at Cytochrome P450 2C9 [4] it was more than 3000 µM; on Cytochrome P450 2D6 [5] it was 1710 µM; at Cytochrome P450 2D6 [6], 2850 µM; against Cytochrome P450 1A2 [7], 228 µM. The IC50 against Cytochrome P450 2C19 [8] was more than 3000 µM; against Cytochrome P450 1A2 [10], 2790 µM; on Cytochrome P450 2C19 [11], 1640 µM; on Cytochrome P450 2C8 [12] it was 2310 µM. Moreover, the values for the IC50 at 10 min at CYP3A4/5 [3] and on CYP3A4/5 [9] were 766 µM and 1310 µM, respectively.

Turning to `Nn1nnc2ccccc21`, the IC50 on Cytochrome P450 4Z1 [13] worked out at 154 µM; at Cytochrome P450 4Z1 [14] it was 12 µM.

Turning to `O=C(O)CCCCCCCNn1nnc2ccccc21`, the concentration for half-maximal inhibition (IC50) against Cytochrome P450 2C8 [1] was determined as 84 µM; on Cytochrome P450 2C9 [2], 330 µM; on Cytochrome P450 2C9 [4], 343 µM; on Cytochrome P450 2D6 [5], 299 µM; against Cytochrome P450 2D6 [6], 826 µM; against Cytochrome P450 1A2 [7], 55 µM. Besides, the IC50 on Cytochrome P450 2C19 [8] is 759 µM; against Cytochrome P450 1A2 [10], 614 µM; against Cytochrome P450 2C19 [11] it was 246 µM; against Cytochrome P450 2C8 [12], 306 µM. The results for the concentration for half-maximal inhibition (IC50) at 10 min on CYP3A4/5 [3] and against CYP3A4/5 [9] were 128 µM and 244 µM, respectively. The Activity entry in the data set with HepG2 and in the data set with T47D was “Non-Toxic” throughout.

These data come from ChEMBL document CHEMBL4402606, “Design and Characterization of the First Selective and Potent Mechanism-Based Inhibitor of Cytochrome P450 4Z1” (J Med Chem, 2020).
